Test results taken from ChEMBL document CHEMBL1154936, “Synthesis, SAR and intramolecular hydrogen bonding pattern of 1,3,5-trisubstituted 4,5-dihydropyrazoles as potent cannabinoid CB(1) receptor antagonists” (Bioorg Med Chem Lett, 2010).

Tests used:
Cannabinoid receptor 1 [1] = molecular target: T1, Cannabinoid receptor 1 (Homo sapiens, UniProt P21554); assay: Displacement of [3H]CP-55940 from human cannabinoid CB1 receptor expressed in CHO cells; format: cell-based
Cannabinoid receptor 1 [2] = molecular target: T1, Cannabinoid receptor 1; assay: Antagonist activity at human cannabinoid CB1 receptor expressed in CHO cells assessed as inhibition of CP-55940-induced [3H]arachidonic acid release; format: functional, cell-based; details: read-out: pA2 (converted)
Rattus norvegicus = assay: Inhibition of CP-55940-induced hypotension in po dosed rat; format: functional; details: read-out: ID50 (the source's name)
Cannabinoid receptor 2 = Cannabinoid receptor 2 (Homo sapiens, UniProt P34972); assay: Displacement of [3H]CP-55940 from human cannabinoid CB2 receptor expressed in CHO cells; format: cell-based
Sequence of Cannabinoid receptor 2 (P34972 whole entry): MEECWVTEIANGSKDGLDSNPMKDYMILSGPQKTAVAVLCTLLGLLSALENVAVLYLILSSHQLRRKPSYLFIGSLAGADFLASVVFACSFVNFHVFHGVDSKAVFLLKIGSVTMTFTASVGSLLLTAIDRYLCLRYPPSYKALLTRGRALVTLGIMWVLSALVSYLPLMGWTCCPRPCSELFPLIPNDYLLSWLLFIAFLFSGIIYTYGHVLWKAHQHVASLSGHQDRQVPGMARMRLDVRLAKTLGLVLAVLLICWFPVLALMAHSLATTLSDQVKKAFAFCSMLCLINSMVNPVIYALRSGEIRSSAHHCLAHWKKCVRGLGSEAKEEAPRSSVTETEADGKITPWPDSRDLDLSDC

T1 sequence (P21554 whole entry): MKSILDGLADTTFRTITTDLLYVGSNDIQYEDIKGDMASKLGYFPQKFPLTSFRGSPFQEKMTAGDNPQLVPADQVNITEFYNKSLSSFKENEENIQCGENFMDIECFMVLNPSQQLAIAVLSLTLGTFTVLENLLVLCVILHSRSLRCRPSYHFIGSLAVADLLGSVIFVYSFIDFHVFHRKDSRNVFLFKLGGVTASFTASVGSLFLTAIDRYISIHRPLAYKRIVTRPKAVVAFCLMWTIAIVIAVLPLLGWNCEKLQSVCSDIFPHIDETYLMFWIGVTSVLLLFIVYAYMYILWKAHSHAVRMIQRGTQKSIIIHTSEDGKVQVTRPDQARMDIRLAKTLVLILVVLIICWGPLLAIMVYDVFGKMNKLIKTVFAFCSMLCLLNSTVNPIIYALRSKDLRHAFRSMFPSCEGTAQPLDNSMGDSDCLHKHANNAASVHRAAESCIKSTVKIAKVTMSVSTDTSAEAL

| Structure (SMILES) | Ki (Cannabinoid receptor 1 [1]) [nM] | Kb (Cannabinoid receptor 1 [2]) [nM] | ED50 (Rattus norvegicus) [mg/kg] | Ki (Cannabinoid receptor 2) [nM] |
| --- | --- | --- | --- | --- |
| CNC(=NS(=O)(=O)N1CCC(C(F)(F)F)CC1)N1C[C@@H](c2ccccc2)C(c2ccc(Cl)cc2)=N1 | 140 | 50.1 | > 30 | > 1000 |
| CN/C(=N\S(=O)(=O)N1CCC(F)(F)CC1)C1=NN(c2ccc(Cl)cc2)[C@H](c2ccccc2)C1 | 280 | > 200 | > 30 | > 1000 |
| CNC(=NS(=O)(=O)N1CCC(C(F)(F)F)CC1)C1=NN(c2ccc(Cl)cc2)[C@H](c2ccccc2)C1 | 58 | 6.31 | – | > 1000 |
| CN/C(=N\S(=O)(=O)c1ccc(C(F)(F)F)cc1)C1=NN(c2ccc(Cl)cc2Cl)C(c2ccccc2)C1 (stereo not given) | 11.3 | 2.51 | > 30 | 179 |
| CN/C(=N\S(=O)(=O)N1CCC(C(F)(F)F)CC1)C1=NN(c2ccc(Cl)cc2)C(c2ccccc2)C1 (stereo not given) | 7.6 | 0.398 | – | 606 |
| CN/C(=N\S(=O)(=O)N1CCC(C(F)(F)F)CC1)N1CC(c2ccccc2)C(c2ccc(Cl)cc2)=N1 (stereo not given) | 14.5 | 0.398 | – | > 1000 |
| CN/C(=N\S(=O)(=O)c1ccc(Cl)cc1)C1=NN(c2ccc(Cl)cc2Cl)C(c2ccccc2)C1 (stereo not given) | 37 | 1 | > 30 | 248 |
| CNC(=NS(=O)(=O)N1CCCCC1)C1=NN(c2ccc(Cl)cc2)C(c2ccccc2)C1 (stereo not given) | 141 | 12.6 | > 30 | 1090 |
| CN/C(=N\S(=O)(=O)c1ccc(Cl)cc1)N1C[C@H](c2ccccc2)C(c2ccc(Cl)cc2)=N1 [IBIPINABANT] | – | – | 5.5 | – |
| CN=C(NS(=O)(=O)N1CCC(F)(F)CC1)C1=NN(c2ccc(Cl)cc2)C(c2ccccc2)C1 (stereo not given) | 38.8 | 0.794 | 9 | > 1000 |
| CNC(=NS(=O)(=O)N1CCC(F)CC1)N1CC(c2ccccc2)C(c2ccc(Cl)cc2)=N1 (stereo not given) | 7.5 | 1 | > 30 | > 1000 |
| CNC(=NS(=O)(=O)N1CCC(F)(F)CC1)N1C[C@H](c2ccccc2)C(c2ccc(Cl)cc2)=N1 | 42 | 1 | 6 | > 1000 |
| CN/C(=N\S(=O)(=O)c1ccc(Cl)cc1)C1=NN(c2ccc(Cl)cc2)C(c2ccccc2)C1 (stereo not given) | 84 | 3.98 | > 30 | > 1000 |
| CNC(=NS(=O)(=O)N1CCC(C(F)(F)F)CC1)C1=NN(c2ccc(Cl)cc2)[C@@H](c2ccccc2)C1 | 2 | – | – | 584 |
| CN/C(=N\S(=O)(=O)N1CCCCC1)N1C[C@H](c2ccccc2)C(c2ccc(Cl)cc2)=N1 | – | – | 8 | – |
| CNC(=NS(=O)(=O)N1CCC(F)(F)CC1)N1C[C@@H](c2ccccc2)C(c2ccc(Cl)cc2)=N1 | 463 | 398 | > 30 | > 1000 |
| CNC(=NS(=O)(=O)N1CCC(C(F)(F)F)CC1)N1C[C@H](c2ccccc2)C(c2ccc(Cl)cc2)=N1 | 4.7 | 0.251 | 2 | 305 |
| CN/C(=N\S(=O)(=O)c1ccc(Cl)cc1)N1CC(c2ccccc2)C(c2ccc(Cl)cc2)=N1 (stereo not drawn) [RAC-IBIPINABANT] | – | – | 15 | – |
| CN/C(=N\S(=O)(=O)c1ccc(F)cc1)C1=NN(c2ccc(Cl)cc2)C(c2ccccc2)C1 (stereo not given) | 21.7 | 10 | 30 | > 1000 |
| CN/C(=N\S(=O)(=O)N1CCC(F)CC1)C1=NN(c2ccc(Cl)cc2)C(c2ccccc2)C1 (stereo not given) | 55 | 3.98 | > 30 | > 1000 |
| CN/C(=N\S(=O)(=O)c1cccc(Cl)c1)C1=NN(c2ccc(Cl)cc2Cl)C(c2ccccc2)C1 (stereo not given) | 53 | 5.01 | > 30 | 330 |
| CN/C(=N\S(=O)(=O)N1CCC(F)(F)CC1)C1=NN(c2ccc(Cl)cc2)[C@@H](c2ccccc2)C1 | 9.2 | 1.58 | 5 | > 1000 |
| CN/C(=N\S(=O)(=O)N1CCC(F)(F)CC1)N1CC(c2ccccc2)C(c2ccc(Cl)cc2)=N1 (stereo not given) | – | – | 23 | – |
